What all share (format): cell-based
One assay has as its system MCF-7 (breast carcinoma). Kind of assay: Calcein AM cytotoxicity assay, MCF7. The following applies: 72 hours incubation. A digest of the protocol: (§1)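 Seeded at 2.500-30.000 cells per well in DMEM with 10% fetal bovine serum, cells were allowed 24 h to stabilise before compound addition. After 72 h treatment, viability was read as calcein fluorescence 1 h after adding Calcein AM at 1 μg/ml final. GI50 derived from dose-response curves relative to control wells.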

Assay [1] has as its system CEM (T-lymphoblastoid leukemia). Kind of assay: Calcein AM cytotoxicity assay, CEM. The gist of the method: as §1
In a further assay the test system is caspase-3. Kind of assay: Activity of caspase-3 in CEM cells (Apo-ONE kit). To be noted: 10 μM, 12 and 24 hours. The method, then:
In the course of apoptosis, caspase cascade is activated. Caspase-3 is an effector caspase that plays a role in the induction of some changes typical for apoptosis (chromatin condensation, DNA fragmentation).
Leukemia cell line CEM was cultured in cell culture medium (DMEM containing 5 g/l glucose, 2 mM glutamine, 100 U/ml peniciline, 100 μg/ml streptomycine, 10% fetal calf serum and sodium bicarbonate). 24 hours before treatment, cell suspensions were centrifuged, diluted to concentration of 500000 cells per ml with fresh medium and pipetted in 50 µL aliquotes into 96-well plate. After 12 and 24 hours of incubation with the test compound, the activity of caspase-3 was measured using commercial kit (Apo-ONE, Promega) that is based on quantification of hydrolysis of fluorogenic substrate Z-DEVD-R110 (excitation 480 nm/emission 520 nm). Reaction specifity was confirmed in a control experiment, when both test compound and caspase-3 inhibitor Ac-DEVD-CHO were added. All experiments were done in triplicate.

Another assay concerns Leukemia cell line CEM. Kind of assay: Flow cytometry analysis of apoptosis (DNA fragmentation, sub-G1) in CEM. The method, then:
One of the hallmarks of apoptosis is fragmentation of DNA. It can be measured by flowcytometry of the cells stained with propidium iodide. Because the fragmentation results in a loss of a fraction of the nuclear DNA, apoptotic cells have a lower DNA content than cells in G1 phase of cell cycle and can be detected as a subG1 peak in the histogram.
Leukemia cell line CEM was cultured in cell culture medium (DMEM containing 5 g/l glucose, 2 mM glutamine, 100 U/ml penicillin, 100 μg/ml streptomycine, 10% fetal calf serum and sodium bicarbonate). 24 hours before treatment, cell suspensions were centrifuged, diluted with fresh medium to concentration of 100000 cells per ml with fresh medium and pipetted in 10 ml aliquotes Petri dishes. After an incubation for a given time period, the cells were collected by centrifugation (4° C., 600 g), washed with PBS (4° C.) and fixed with 70% ethanol at −20° C. overnight. Low molecular weight DNA fragmentse were extracted with citrate buffer (11.36 g trisodium citrate dihydrate/l). The nuclei were stained with the solution of propidium iodide in PBS (10 μg/ml) containing RNase A (60 IU per sample). After 1 hour incubation the samples were analyzed by flowcytometry (excitation 488 nm, emission above 620 nm).
(Flow cytometry measures light scatter and fluorescence of single cells or particles in a stream.)

On to `O=P(O)(O)OC[C@H]1O[C@@H](n2cnc3c(NCc4ccccc4O)ncnc32)[C@H](O)[C@@H]1O` [Compound 21, 6-(2-hydroxybenzylamino)purine riboside-5′-monophosphate], for which the GI50 was 10.5 µM with MCF-7 (breast carcinoma) and 1.3 µM in assay [1] (72 hours incubation, Calcein AM). Further, in assay [1] (FIG. 2 legend), the IC50 is 1.3 µM. Also, the “activation of caspase-3” value in the assay with caspase-3 is recorded as “activates caspase-3”. For the same compound, the “time after which DNA fragmentation effect was visible” value in the assay on Leukemia cell line CEM is at most 12 h. Further, the “induction of DNA fragmentation (apoptotic sub-G1 fraction)” value in the assay with Leukemia cell line CEM (IC50, triple IC50 and fivefold IC50) is “induction of DNA fragmentation is dependent on the concentration of compound 21 and the time of the treatment”.

What is called GI50 is the concentration at which growth is held to half of that of the control. In general, IC50 refers to the point on the concentration scale where inhibition reaches its midpoint.

Source of the values: patent publication US9073961B2, “Substitution derivatives of N6 -benzyladenosine-5′-monophosphate, methods of preparation thereof, use thereof as medicaments, and therapeutic preparations containing these compounds” (UNIVERZITA PALACKEHO V OLOMOUCI, priority 2010, dated 2015).
